Source: PubChem BioAssay (NCI)
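Grown in 96-well plates, cells were treated for 48 hours with each compound at five concentrations. Insufficient inhibition: endpoint recorded as highest concentration tested. The concentration for full growth arrest is given as TGI.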

Columns and labels:
Experiment in all cases: growth of human tumour cells (NCI), 48 h
OVCAR-4 ovarian = test system: OVCAR-4 ovarian
RPMI-8226 leukemia = test system: RPMI-8226 leukemia
NCI-H460 lung = test system: NCI-H460 lung
A549 NSCLC = test system: A549 NSCLC
HCC-2998 colon = test system: HCC-2998 colon
MDA-MB-231 breast = test system: MDA-MB-231 breast
U251 CNS = test system: U251 CNS
HOP-92 NSCLC = test system: HOP-92 NSCLC
SR leukemia = test system: SR leukemia
SF-268 CNS = test system: SF-268 CNS
SW-620 colon = test system: SW-620 colon
OVCAR-8 ovarian = test system: OVCAR-8 ovarian
IGROV1 ovarian = test system: IGROV1 ovarian
SK-OV-3 ovarian = test system: SK-OV-3 ovarian
HOP-62 NSCLC = test system: HOP-62 NSCLC
HCT-116 colon = test system: HCT-116 colon
RXF 393 renal = test system: RXF 393 renal

SMILES | TGI (OVCAR-4 ovarian) | TGI (RPMI-8226 leukemia) | TGI (NCI-H460 lung) | TGI (A549 NSCLC) | TGI (HCC-2998 colon) | TGI (MDA-MB-231 breast) | TGI (U251 CNS) | TGI (HOP-92 NSCLC) | TGI (SR leukemia) | TGI (SF-268 CNS) | TGI (SW-620 colon) | TGI (OVCAR-8 ovarian) | TGI (IGROV1 ovarian) | TGI (SK-OV-3 ovarian) | TGI (HOP-62 NSCLC) | TGI (HCT-116 colon) | TGI (RXF 393 renal)
Oc1ccc(/C=C/c2cccc(/C=C/c3ccc(O)c(O)c3)n2)cc1O | > 100 µM | 31.1 µM | 38.1 µM | 22.2 µM | 33.1 µM | 76.7 µM | > 100 µM | 25.3 µM | 14.5 µM | 23.3 µM | > 100 µM | 20.8 µM | 19.6 µM | 34 µM | > 100 µM | 20.1 µM | 
N#CCCN(CCC#N)c1ccc(/C=C2\N=C(c3ccccc3)N(c3ccc(C(=O)O)cc3)C2=O)cc1 | 66.8 µM | > 100 µM | > 100 µM | > 100 µM |  | > 100 µM | > 100 µM | 30.1 µM |  | 61.6 µM | 48.3 µM | 73.1 µM | 53.3 µM | > 100 µM | > 100 µM | > 100 µM | > 100 µM
CC(C)(C)OC(=O)N1NC(c2ccccc2)CC1c1ccccc1 (configuration not stated) |  | > 100 µM | > 100 µM | 32.9 µM | > 100 µM |  |  | > 100 µM | > 100 µM | > 100 µM | > 100 µM | > 100 µM |  | > 100 µM | > 100 µM | > 100 µM | 58.4 µM
O=C(O)c1nc2ccc(C(F)(F)F)cc2nc1Nc1ccc(Cl)c(Cl)c1 | 76.1 µM |  | 20.8 µM |  | 17.6 µM | 26.7 µM | 14.7 µM |  | 14 µM | 21.9 µM | 24.1 µM | 17.6 µM | 34.7 µM |  | 20.6 µM | 17.1 µM | 28.9 µM
N#Cc1c2ccc([N+](=O)[O-])cc2c(=O)n2c1[nH]c1ccc(C(F)(F)F)cc12 | > 100 µM | 13.6 µM | > 100 µM | > 100 µM | > 100 µM | > 77.8 µM | > 100 µM | 51.9 µM | > 25.7 µM | > 100 µM | > 100 µM | > 100 µM | > 100 µM | > 100 µM | > 100 µM | > 41.6 µM | 
N#Cc1c(=O)c2ccccc2n2ccccc12 | > 100 µM | > 100 µM | > 100 µM | > 100 µM | > 100 µM | > 100 µM | > 100 µM | > 100 µM | > 100 µM | > 100 µM | > 100 µM | > 100 µM | > 100 µM |  |  | > 100 µM | 
CC(O)c1cc2c(s1)C(=O)c1c(C(C)O)csc1C2=O (configuration not stated) | 0.524 µM | 0.801 µM | 0.148 µM | 0.355 µM | 1.07 µM | 0.482 µM | 4.32 µM | 0.762 µM |  | 1.32 µM | 0.833 µM | 0.717 µM | 0.468 µM | 1.76 µM | 0.439 µM | 1.07 µM | 0.656 µM
COc1cccc(-c2cc(=O)c3cc4c(cc3[nH]2)OCO4)c1 |  | > 100 µM | 0.898 µM | > 100 µM | 0.934 µM |  |  | > 100 µM | > 100 µM | > 69.5 µM | > 100 µM | 0.868 µM | 6.12 µM | 1.15 µM | 21.9 µM | > 100 µM | 0.474 µM
